Laboratory results: patent publication US7563787B2, “Substituted pyrazole compounds” (Miikana Therapeutics, Inc., priority 2005, dated 2009)

Tests used:
Format in all cases: biochemical
[1] = molecular target: T1, NTRK1 (TRKA) (Homo sapiens, UniProt P04629); assay: Kinase Selectivity Assay; conditions: read-out: Percent Inhibition at 1 μM; further: ATP at apparent Km or 100 µM
T1 construct: full-length enzymes or catalytically active fragments; purchased Invitrogen
Method: (§1) Compounds were assayed for inhibitory activity against a panel of different kinase enzymes at a concentration of 1 μM. Where appropriate, full-length enzymes or catalytically active fragments, with N-terminal or C-terminal His- or GST-tags, were used (Invitrogen, Carlsbad, Calif.). Test compounds were initially diluted to 100× test concentration in 100% DMSO. This 100× concentration was then diluted to a 4× working concentration in Kinase Buffer (50 mM HEPES pH 7.5, 0.01% Brij-35, 10 mM MgCl2, 1 mM EGTA) and 2.5 μL was then added to a low volume NBS, 384-well plate (Corning, Corning, N.Y.). Five μL of a 2× peptide/kinase mixture (Invitrogen, Carlsbad, Calif.), as appropriate (listed in Table 3), was then added and the reaction was then initiated by addition of 2.5 μL of a 4× working concentration of ATP in Kinase Buffer.

[2] = molecular target: T2, CSF1R (FMS) (Homo sapiens, UniProt P07333); assay: Kinase Selectivity Assay; conditions: read-out: Percent Inhibition at 1 μM; further: ATP at apparent Km or 100 µM
T2 construct: purchased Invitrogen, Carlsbad, Calif
Method: as §1

[3] = molecular target: T3, IRAK4 (Homo sapiens, UniProt Q9NWZ3); assay: Kinase Selectivity Assay; conditions: read-out: Percent Inhibition at 1 μM; further: ATP at apparent Km or 100 µM
T3 construct: full-length enzymes or catalytically active fragments; purchased Invitrogen
Method: as §1

[4] = molecular target: T4, ABL1 (Homo sapiens, UniProt P00519); assay: Kinase Selectivity Assay; conditions: read-out: Percent Inhibition at 1 μM; further: ATP at apparent Km or 100 µM
T4 construct: purchased Invitrogen, Carlsbad, Calif
Method: as §1

[5] = molecular target: T5, ABL2 (Arg) (Homo sapiens, UniProt P42684); assay: Kinase Selectivity Assay; conditions: read-out: Percent Inhibition at 1 μM; further: ATP at apparent Km or 100 µM
T5 construct: purchased Invitrogen, Carlsbad, Calif
Method: as §1

[6] = molecular target: T6, AKT1 (PKB alpha) (Homo sapiens, UniProt P31749); assay: Kinase Selectivity Assay; conditions: read-out: Percent Inhibition at 1 μM; further: ATP at apparent Km or 100 µM
T6 construct: purchased Invitrogen, Carlsbad, Calif
Method: as §1

[7] = molecular target: T7, EPHA1 (Homo sapiens, UniProt P21709); assay: Kinase Selectivity Assay; conditions: read-out: Percent Inhibition at 1 μM; further: ATP at apparent Km or 100 µM
T7 construct: purchased Invitrogen, Carlsbad, Calif
Method: as §1

[8] = molecular target: T8, KDR (VEGFR2) (Homo sapiens, UniProt P35968); assay: Kinase Selectivity Assay; conditions: read-out: Percent Inhibition at 1 μM; further: ATP at apparent Km or 100 µM
T8 construct: full-length enzymes or catalytically active fragments; purchased Invitrogen
Method: as §1

[9] = molecular target: T9, FLT4 (VEGFR3) (Homo sapiens, UniProt P35916); assay: Kinase Selectivity Assay; conditions: read-out: Percent Inhibition at 1 μM; further: ATP at apparent Km or 100 µM
T9 construct: full-length enzymes or catalytically active fragments; purchased Invitrogen
Method: as §1

[10] = molecular target: T10, EPHB1 (Homo sapiens, UniProt P54762); assay: Kinase Selectivity Assay; conditions: read-out: Percent Inhibition at 1 μM; further: ATP at apparent Km or 100 µM
T10 construct: purchased Invitrogen, Carlsbad, Calif
Method: as §1

[11] = molecular target: T11, PDGFRA D842V (Homo sapiens, UniProt P16234, D842V); assay: Kinase Selectivity Assay; conditions: read-out: Percent Inhibition at 1 μM; further: ATP at apparent Km or 100 µM
T11 construct: full-length enzymes or catalytically active fragments; purchased Invitrogen
Method: as §1

[12] = molecular target: T12, CDK2/cyclin A (Homo sapiens, UniProt P24941); assay: Kinase Selectivity Assay; conditions: read-out: Percent Inhibition at 1 μM; further: ATP at apparent Km or 100 µM
T12 construct: purchased Invitrogen, Carlsbad, Calif
Method: as §1

[13] = molecular target: T13, PTK2 (FAK) (Homo sapiens, UniProt Q05397); assay: Kinase Selectivity Assay; conditions: read-out: Percent Inhibition at 1 μM; further: ATP at apparent Km or 100 µM
T13 construct: full-length enzymes or catalytically active fragments; purchased Invitrogen
Method: as §1

[14] = molecular target: T14, LYN A (Homo sapiens, UniProt P07948); assay: Kinase Selectivity Assay; conditions: read-out: Percent Inhibition at 1 μM; further: ATP at apparent Km or 100 µM
T14 construct: full-length enzymes or catalytically active fragments; purchased Invitrogen
Method: as §1

[15] = molecular target: T15, ABL1 T315I (Homo sapiens, UniProt P00519, T315I); assay: Kinase Selectivity Assay; conditions: read-out: Percent Inhibition at 1 μM; further: ATP at apparent Km or 100 µM
T15 construct: purchased Invitrogen, Carlsbad, Calif
Method: as §1

[16] = molecular target: T16, FGFR2 (Homo sapiens, UniProt P21802); assay: Kinase Selectivity Assay; conditions: read-out: Percent Inhibition at 1 μM; further: ATP at apparent Km or 100 µM
T16 construct: full-length enzymes or catalytically active fragments; purchased Invitrogen
Method: as §1

[17] = molecular target: T17, STK6 (Aurora A) (Homo sapiens, UniProt O14965); assay: Kinase Selectivity Assay; conditions: read-out: Percent Inhibition at 1 μM; further: ATP at apparent Km or 100 µM
T17 construct: full-length enzymes or catalytically active fragments; purchased Invitrogen
Method: as §1

[18] = molecular target: T18, BTK (Homo sapiens, UniProt Q06187); assay: Kinase Selectivity Assay; conditions: read-out: Percent Inhibition at 1 μM; further: ATP at apparent Km or 100 µM
T18 construct: purchased Invitrogen, Carlsbad, Calif
Method: as §1

[19] = molecular target: T19, Aurora B kinase (Homo sapiens, UniProt Q96GD4); assay: Aurora B (Aurora 1) Inhibition Assay; conditions: 100 μM compound; ATP 50 μM; 16 h
T19 construct: purchased BPS Biosciences, San Diego, Calif
Method: Assays for Aurora B kinase inhibition were carried out similarly to those for Aurora A kinase (see above) with the following modifications. Aurora B kinase (BPS Biosciences, San Diego, Calif.) was used as the enzyme, at a concentration was 2.5 μg/mL. The ATP concentration was 50 μM, and the kinase reaction was allowed to proceed for 16 h. Sodium orthovanadate (20 μM) was added to the buffer to inhibit contaminating phosphatases.

[20] = molecular target: T20, recombinant Aurora A (Homo sapiens, UniProt O14965); assay: Aurora A (Aurora 2) Inhibition Assay (Z'-Lyte); conditions: 100 μM compound; ATP 10 μM; 1 h
T20 construct: purchased Upstate, Lake Placid, N.Y
T20 sequence (O14965 1-403): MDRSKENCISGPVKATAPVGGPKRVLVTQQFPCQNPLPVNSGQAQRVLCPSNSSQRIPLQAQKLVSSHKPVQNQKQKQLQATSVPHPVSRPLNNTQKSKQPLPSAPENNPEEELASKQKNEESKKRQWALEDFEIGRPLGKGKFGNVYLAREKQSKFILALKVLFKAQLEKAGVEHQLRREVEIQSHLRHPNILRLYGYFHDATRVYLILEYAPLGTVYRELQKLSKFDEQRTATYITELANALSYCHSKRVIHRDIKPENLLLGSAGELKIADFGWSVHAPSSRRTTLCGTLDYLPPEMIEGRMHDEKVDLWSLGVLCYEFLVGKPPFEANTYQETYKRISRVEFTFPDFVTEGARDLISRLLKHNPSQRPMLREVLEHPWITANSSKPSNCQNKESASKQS
Method: Compounds were tested for their potency against recombinant Aurora A (Upstate, Lake Placid, N.Y.) using the PanVera Z'-Lyte kinase assay kit-Ser/[…] peptide (Invitrogen, Carlsbad, Calif.). […] Assays were carried out in half-area 96-well white polystyrene assay plates (Corning, Corning, N.Y.) in a final volume of 20 μl. The reaction was allowed to proceed for 1 h at room temperature in the dark, at which point the development reagent and stop reagent were added according to the manufacturer's instructions. Coumarin (Ex. 400 nm, Em. 465 nm) and fluorescein (Ex. 400 nm, Em. 565 nm) fluorescence values were measured on a SpectraFluor Plus plate reader (Tecan, Durham, N.C.). The emission ratio (coumarin/fluorescein) was determined and used to calculate the percent phosphorylation for each well. […] Typically 20-40% of the substrate was phosphorylated in wells without inhibitor. Dose-response curves of relative Aurora A activity vs. inhibitor concentration were plotted with Grafit (Erithacus Software, Horley, Surrey, UK).

[21] = molecular target: T21, recombinant human Flt3, residues 564-end (Homo sapiens, UniProt P36888); assay: Flt3 Kinase Inhibition Assay; conditions: read-out: inhibition of Flt3 at a concentration of 1 μM; 1 μM compound; 33P-ATP filter assay
T21 construct: recombinant human Flt3, residues 564-end; GST (N); purchased Upstate USA Inc, Charlottesville, Va
Method: Compounds were assayed for Flt3 kinase inhibitory activity using N-terminal GST-tagged recombinant human Flt3, residues 564-end (Upstate USA Inc, 706 Forest Street, Charlottesville, Va.). Serial dilutions of compound were assayed in a final reaction volume of 25 μL by incubating a solution of the above Flt3 kinase (5-10 mU), 8 mM MOPS (3-(N-morpholino) propanesulfonic acid) pH 7.0, 0.2 mM EDTA (ethylenediamine tetracetic acid), 50 μM amino acid sequence [sequence] (SEQ ID NO: 1)(Upstate USA Inc, 706 Forest Street, Charlottesville, Va.), and 10 mM magnesium acetate and [γ-^33P-ATP] (specific activity of about 500 cpm/pmol, concentration as required). The reaction was initiated by the addition of the magnesium acetate and [γ-^33P-ATP] mixture. After incubation for 40 minutes at room temperature, the reaction was stopped bythe addition of 5 μL of a 3% phosphoric acid solution. A 10 μL aliquote of the reaction was then spotted onto a P30 filtermat (PerkinElmer, Wellesley, Mass.) and washed three times for five minutes in 75 mM phosphoric acid and once in methanol prior to drying and scintillation counting. Inhibition of Flt3 activity was determined by comparison to assays that contained no inhibitor.

T7 sequence (P21709 26-976): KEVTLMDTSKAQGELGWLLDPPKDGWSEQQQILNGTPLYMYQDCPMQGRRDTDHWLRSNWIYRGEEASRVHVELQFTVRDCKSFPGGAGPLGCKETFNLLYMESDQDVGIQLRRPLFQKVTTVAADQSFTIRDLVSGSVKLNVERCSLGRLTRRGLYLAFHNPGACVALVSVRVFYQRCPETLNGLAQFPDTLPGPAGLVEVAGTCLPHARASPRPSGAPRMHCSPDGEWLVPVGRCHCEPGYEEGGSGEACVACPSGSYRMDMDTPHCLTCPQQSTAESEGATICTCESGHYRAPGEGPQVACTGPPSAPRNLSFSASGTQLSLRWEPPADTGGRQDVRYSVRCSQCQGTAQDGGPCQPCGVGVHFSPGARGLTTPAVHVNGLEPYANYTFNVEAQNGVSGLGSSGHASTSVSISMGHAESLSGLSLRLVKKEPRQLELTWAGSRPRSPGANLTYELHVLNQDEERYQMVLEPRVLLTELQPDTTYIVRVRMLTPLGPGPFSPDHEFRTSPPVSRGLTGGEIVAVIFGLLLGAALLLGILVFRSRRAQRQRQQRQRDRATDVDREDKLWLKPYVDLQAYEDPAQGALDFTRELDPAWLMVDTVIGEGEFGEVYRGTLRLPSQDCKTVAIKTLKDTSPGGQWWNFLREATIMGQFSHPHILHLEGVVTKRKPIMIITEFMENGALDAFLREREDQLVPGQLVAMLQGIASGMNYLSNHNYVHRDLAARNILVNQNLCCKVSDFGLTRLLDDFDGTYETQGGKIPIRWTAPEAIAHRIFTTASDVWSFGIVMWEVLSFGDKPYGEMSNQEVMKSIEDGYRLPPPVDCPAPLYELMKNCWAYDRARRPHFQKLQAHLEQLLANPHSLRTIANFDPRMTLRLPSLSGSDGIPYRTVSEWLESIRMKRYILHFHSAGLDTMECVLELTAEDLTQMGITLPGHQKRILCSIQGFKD
T19 sequence (Q96GD4 whole entry): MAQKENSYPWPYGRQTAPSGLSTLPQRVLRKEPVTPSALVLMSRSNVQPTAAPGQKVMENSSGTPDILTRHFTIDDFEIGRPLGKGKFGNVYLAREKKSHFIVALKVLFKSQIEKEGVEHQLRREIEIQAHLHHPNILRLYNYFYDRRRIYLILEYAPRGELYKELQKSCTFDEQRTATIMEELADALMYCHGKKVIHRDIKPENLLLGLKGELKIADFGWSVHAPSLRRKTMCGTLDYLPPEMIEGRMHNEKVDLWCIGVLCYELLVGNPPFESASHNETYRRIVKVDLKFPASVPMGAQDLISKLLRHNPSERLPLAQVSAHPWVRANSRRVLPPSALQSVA
T16 sequence (P21802 22-821): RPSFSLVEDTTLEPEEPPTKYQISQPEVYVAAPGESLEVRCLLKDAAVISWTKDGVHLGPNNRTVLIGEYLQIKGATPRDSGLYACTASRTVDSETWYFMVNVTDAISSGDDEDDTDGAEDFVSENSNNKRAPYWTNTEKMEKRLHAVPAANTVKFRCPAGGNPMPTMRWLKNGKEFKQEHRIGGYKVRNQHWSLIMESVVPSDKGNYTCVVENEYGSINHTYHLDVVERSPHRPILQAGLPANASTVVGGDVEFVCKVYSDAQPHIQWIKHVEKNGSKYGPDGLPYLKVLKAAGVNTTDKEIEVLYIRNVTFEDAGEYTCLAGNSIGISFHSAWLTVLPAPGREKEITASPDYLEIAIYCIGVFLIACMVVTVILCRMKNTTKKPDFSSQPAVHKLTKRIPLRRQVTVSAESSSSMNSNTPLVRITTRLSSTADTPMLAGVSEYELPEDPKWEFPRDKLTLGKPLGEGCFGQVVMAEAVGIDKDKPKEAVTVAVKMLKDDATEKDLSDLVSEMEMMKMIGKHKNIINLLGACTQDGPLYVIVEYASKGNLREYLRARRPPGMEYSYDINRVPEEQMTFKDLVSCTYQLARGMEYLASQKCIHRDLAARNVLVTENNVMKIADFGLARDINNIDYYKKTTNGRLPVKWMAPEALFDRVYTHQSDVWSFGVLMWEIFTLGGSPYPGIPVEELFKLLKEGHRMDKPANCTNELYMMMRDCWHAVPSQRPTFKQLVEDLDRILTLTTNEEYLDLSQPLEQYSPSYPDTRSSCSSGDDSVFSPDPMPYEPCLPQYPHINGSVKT
T6 sequence (P31749 whole entry): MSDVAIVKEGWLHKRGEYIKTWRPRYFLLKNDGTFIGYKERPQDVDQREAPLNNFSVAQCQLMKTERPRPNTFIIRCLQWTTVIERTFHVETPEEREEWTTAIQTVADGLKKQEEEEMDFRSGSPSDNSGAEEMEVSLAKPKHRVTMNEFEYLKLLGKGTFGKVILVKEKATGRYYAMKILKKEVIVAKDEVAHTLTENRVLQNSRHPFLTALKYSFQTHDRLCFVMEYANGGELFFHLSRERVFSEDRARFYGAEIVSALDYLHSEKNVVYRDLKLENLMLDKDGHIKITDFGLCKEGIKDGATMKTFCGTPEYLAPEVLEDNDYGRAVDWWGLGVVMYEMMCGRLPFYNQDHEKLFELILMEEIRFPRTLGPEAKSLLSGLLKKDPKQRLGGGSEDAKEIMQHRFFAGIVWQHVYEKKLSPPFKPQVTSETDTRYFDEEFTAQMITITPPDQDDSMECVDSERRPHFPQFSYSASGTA
T1 sequence (P04629 33-796): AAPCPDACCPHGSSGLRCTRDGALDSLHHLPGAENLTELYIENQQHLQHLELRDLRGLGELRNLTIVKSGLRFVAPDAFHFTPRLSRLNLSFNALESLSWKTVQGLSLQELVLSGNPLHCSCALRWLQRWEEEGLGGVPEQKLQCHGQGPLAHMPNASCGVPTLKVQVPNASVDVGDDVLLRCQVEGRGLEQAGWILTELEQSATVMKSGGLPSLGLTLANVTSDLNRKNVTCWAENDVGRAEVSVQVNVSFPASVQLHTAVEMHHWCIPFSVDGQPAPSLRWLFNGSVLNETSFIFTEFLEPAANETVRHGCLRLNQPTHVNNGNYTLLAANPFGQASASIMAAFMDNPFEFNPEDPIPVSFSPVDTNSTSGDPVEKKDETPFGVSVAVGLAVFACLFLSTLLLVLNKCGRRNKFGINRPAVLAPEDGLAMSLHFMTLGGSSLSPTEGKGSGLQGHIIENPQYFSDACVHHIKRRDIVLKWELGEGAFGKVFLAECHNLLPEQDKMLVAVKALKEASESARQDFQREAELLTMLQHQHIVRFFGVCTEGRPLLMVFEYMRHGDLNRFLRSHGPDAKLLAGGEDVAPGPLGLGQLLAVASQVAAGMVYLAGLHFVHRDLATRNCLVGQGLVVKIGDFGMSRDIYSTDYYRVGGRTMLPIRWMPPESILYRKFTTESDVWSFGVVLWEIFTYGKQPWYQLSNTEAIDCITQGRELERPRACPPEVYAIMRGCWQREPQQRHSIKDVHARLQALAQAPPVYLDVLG
T8 sequence (P35968 20-1356): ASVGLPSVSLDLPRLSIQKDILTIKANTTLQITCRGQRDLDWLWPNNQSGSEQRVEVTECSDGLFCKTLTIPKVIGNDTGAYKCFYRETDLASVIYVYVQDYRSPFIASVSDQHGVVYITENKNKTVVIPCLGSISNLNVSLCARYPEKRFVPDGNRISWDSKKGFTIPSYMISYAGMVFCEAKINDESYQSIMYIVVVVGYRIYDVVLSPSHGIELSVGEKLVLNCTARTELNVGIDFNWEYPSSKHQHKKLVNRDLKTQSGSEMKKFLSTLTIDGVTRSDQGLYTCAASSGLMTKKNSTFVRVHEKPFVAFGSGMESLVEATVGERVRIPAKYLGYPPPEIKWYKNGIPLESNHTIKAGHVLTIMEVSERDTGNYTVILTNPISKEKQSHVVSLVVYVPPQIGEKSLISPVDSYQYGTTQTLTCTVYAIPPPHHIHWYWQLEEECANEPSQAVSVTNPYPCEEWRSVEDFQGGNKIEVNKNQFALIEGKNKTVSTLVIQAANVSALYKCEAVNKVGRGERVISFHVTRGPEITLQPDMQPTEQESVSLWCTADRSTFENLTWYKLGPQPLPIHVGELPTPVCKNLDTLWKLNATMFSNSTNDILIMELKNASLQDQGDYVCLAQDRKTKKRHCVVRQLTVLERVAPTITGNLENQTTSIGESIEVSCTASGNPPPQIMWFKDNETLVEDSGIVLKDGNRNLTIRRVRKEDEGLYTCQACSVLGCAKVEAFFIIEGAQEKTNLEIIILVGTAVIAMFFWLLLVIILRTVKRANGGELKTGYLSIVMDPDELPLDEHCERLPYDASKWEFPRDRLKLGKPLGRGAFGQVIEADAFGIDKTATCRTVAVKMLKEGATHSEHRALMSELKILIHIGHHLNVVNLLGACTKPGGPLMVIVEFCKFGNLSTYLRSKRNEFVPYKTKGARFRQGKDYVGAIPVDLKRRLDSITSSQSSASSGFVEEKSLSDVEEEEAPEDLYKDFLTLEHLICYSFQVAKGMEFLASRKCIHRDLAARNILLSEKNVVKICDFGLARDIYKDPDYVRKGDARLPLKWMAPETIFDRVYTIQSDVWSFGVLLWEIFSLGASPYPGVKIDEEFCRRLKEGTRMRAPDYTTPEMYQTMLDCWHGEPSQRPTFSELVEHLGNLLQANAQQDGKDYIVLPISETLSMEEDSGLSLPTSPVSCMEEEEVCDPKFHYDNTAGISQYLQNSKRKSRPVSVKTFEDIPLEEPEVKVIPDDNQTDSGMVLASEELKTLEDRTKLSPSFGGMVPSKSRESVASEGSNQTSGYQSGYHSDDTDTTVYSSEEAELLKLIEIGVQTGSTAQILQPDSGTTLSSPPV

| Compound | inhibition at 1 µM [1] [%] | inhibition at 1 µM [2] [%] | inhibition at 1 µM [3] [%] | inhibition at 1 µM [5] [%] | inhibition at 1 µM [6] [%] | inhibition at 1 µM [7] [%] | inhibition at 1 µM [8] [%] | inhibition at 1 µM [9] [%] | inhibition at 1 µM [10] [%] | inhibition at 1 µM [11] [%] | inhibition at 1 µM [12] [%] | inhibition at 1 µM [14] [%] | inhibition at 1 µM [16] [%] | inhibition at 1 µM [17] [%] | inhibition at 1 µM [18] [%] | inhibition at 100 µM [19] [%] | inhibition at 100 µM [20] [%] | further results |
| --- | --- | --- | --- | --- | --- | --- | --- | --- | --- | --- | --- | --- | --- | --- | --- | --- | --- | --- |
| Cc1cc(Nc2nc(/C=C/c3ccccc3)nc(N3CCN(C)CC3)c2N)[nH]n1 [Example 10, 6-(4-methylpiperazin-1-yl)-N-(3-methyl-1H-pyrazol-5-yl)-2-[(E)-2-phenylvinyl]pyrimidin-4,5-diamine] | 92 | 80 | 14 | 32 | 9 | 52 | 88 | 87 | 32 | 9 | 8 | 63 | 53 | 83 | 28 | 97 | 100 | inhibition at 1 µM [4]: 54%; inhibition at 1 µM [13]: 81%; inhibition at 1 µM [15]: 79% |
| Cc1cc(Nc2cc(N3CCN(C)CC3)nc(/C=C/c3ccccc3)n2)n[nH]1 [Example 31, 6-(4-methylpiperazin-1-yl)-N-(3-methyl-1H-pyrazol-5-yl)-2-[(E)-2-phenylvinyl]pyrimidin-4-amine] | 96 | 97 | 63 | 74 | 5 | 77 | 96 | 97 | 61 | 24 | 8 | 84 | 86 | 96 | 63 | 100 | 100 | inhibition at 1 µM [21]: ~96% |
